Laboratory results taken from US20110117189A1, “OPHTHALMIC COMPOSITIONS FOR TREATING PATHOLOGIES OF THE POSTERIOR SEGMENT OF THE EYE” (S.I.F.I. Societa' Industria Farmaceutica Italiana S.P.A., priority 2008, published 2011).

Experiment: In-vivo pharmacokinetic test: ocular distribution of dexamethasone after single administration to the conjunctival sac (LC/MS/MS)
Parameters: species or system pigmented rabbits
Conditions: treated and non-treated eyes
Description: Dexamethasone concentration in ocular tissues was determined by a LC/MS/MS method.
Two experiments were carried out on male pigmented rabbits weighing 1.8-2.2 kg divided into 2 treatment groups, of which only one eye was treated with: 50 μl of the composition containing dexamethasone sodium phosphate in 1% xanthan base (Group I) or 50 μl of dexamethasone sodium phosphate in solution (Group II). In the first experiment the animals were then killed at the following times: 30, 60, 90, 120, 180 and 240 minutes after treatment (n=6 animals for each time point). In the second experiment the animals were killed at these times: 15, 30 and 60 minutes after treatment (n=4 animals for each time point). The active principle was determined in the aqueous humour, vitreous, retina-choroid and plasma after suitable extraction from the biological tissue, by a LC/MS/MS method.

- Concentrations of dexamethasone in the vitreous: less than 10 ng/ml
Structure (SMILES): C[C@@H]1C[C@H]2[C@@H]3CCC4=CC(=O)C=C[C@]4(C)[C@@]3(F)[C@@H](O)C[C@]2(C)[C@@]1(O)C(=O)CO [dexamethasone]
